A value given as a limit tells only on which side of the number the result lay.

The target in one assay is T1, ACAD11 (Homo sapiens, UniProt Q709F0).
T1 construct: endogenous in cells
T1 sequence (Q709F0 1-780): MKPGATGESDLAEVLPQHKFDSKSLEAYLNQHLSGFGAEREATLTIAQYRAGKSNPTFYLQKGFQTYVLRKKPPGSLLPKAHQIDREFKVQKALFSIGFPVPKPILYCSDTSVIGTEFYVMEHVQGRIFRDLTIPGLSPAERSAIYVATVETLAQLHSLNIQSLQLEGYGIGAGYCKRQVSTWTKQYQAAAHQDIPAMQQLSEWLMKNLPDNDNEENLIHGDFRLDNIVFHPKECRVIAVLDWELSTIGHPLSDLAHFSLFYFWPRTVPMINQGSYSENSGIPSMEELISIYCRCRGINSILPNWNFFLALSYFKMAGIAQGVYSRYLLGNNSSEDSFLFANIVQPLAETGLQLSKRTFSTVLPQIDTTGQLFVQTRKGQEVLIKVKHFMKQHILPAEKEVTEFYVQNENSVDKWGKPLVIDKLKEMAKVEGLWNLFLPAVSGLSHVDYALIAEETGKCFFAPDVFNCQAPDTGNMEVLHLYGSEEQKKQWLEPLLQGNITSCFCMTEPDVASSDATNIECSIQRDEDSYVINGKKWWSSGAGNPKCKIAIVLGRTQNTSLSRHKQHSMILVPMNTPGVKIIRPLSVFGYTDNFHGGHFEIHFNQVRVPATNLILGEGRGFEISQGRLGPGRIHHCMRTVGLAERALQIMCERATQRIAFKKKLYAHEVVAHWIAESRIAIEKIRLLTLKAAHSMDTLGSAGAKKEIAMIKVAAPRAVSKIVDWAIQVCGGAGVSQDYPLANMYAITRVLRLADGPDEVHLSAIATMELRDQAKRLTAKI
As to the kind of experiment: Kinobeads two-dose competition binding: ACAD11. To be noted: sheet CATDS matrix 2; Gene Name ACAD11.

Another assay has as its target T2, AAK1 (Homo sapiens, UniProt Q2M2I8).
T2 construct: to maximize the representation of endogenous proteins; endogenous in cells
As to the kind of experiment: Kinobeads two-dose competition binding: AAK1.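 On all read-outs here: kinobeads competition pulldown from cell lysate, compound preincubated 45 min at 4 °C, bead-bound protein measured by label-free mass spectrometry against DMSO vehicle control.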 The settings on record: for potency estimated from few doses: sheet "Kinobeads Drugmatrix - all", unit inferred, same values below 1000 recur in sheet "nanomolar", read-out: Kinobeads Drugmatrix - all: apparent Kd, AAK1; for CATDS: sheet CATDS matrix 2, Gene Name AAK1.

In a further assay the target is ABL1 (Homo sapiens, UniProt P00519). As to the kind of experiment: Kinobeads two-dose competition binding: ABL1. To be noted: sheet CATDS matrix 2; Gene Name ABL1.
A further assay deals with T3, ABL2 (Homo sapiens, UniProt P42684).
T3 construct: endogenous in cells
Briefly: Kinobeads two-dose competition binding: ABL2. The settings on record: sheet CATDS matrix 2; Gene Name ABL2.

The target in another assay is T4, ACOX1 (Homo sapiens, UniProt Q15067).
T4 construct: endogenous in cells
T4 sequence (Q15067 1-660): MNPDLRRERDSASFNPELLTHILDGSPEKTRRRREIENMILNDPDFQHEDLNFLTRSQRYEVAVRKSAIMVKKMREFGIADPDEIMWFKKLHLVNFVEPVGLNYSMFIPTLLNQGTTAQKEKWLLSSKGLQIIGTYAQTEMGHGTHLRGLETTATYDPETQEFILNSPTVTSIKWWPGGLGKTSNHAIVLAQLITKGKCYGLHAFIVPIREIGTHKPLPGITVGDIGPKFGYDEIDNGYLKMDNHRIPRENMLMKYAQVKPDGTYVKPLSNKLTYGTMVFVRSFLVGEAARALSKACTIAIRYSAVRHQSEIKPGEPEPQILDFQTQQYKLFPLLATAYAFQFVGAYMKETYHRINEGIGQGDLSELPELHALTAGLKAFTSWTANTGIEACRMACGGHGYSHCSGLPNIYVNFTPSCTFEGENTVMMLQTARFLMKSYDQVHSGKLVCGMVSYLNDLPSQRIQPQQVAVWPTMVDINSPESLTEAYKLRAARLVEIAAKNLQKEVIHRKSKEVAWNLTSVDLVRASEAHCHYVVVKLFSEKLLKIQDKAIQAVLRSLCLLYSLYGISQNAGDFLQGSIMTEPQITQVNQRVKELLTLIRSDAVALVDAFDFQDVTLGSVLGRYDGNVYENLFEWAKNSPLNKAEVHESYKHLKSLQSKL
Briefly: Kinobeads two-dose competition binding: ACOX1.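 Further: competition of compounds with immobilized broad-spectrum kinase inhibitor beads in cell lysate at 100 and 1,000 nM, 45 min at 4 °C, bead-bound protein quantified by label-free MS versus DMSO.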 The settings on record: sheet CATDS matrix 2; Gene Name ACOX1.

ABL1, sequence (P00519 28-1130 limits assumed): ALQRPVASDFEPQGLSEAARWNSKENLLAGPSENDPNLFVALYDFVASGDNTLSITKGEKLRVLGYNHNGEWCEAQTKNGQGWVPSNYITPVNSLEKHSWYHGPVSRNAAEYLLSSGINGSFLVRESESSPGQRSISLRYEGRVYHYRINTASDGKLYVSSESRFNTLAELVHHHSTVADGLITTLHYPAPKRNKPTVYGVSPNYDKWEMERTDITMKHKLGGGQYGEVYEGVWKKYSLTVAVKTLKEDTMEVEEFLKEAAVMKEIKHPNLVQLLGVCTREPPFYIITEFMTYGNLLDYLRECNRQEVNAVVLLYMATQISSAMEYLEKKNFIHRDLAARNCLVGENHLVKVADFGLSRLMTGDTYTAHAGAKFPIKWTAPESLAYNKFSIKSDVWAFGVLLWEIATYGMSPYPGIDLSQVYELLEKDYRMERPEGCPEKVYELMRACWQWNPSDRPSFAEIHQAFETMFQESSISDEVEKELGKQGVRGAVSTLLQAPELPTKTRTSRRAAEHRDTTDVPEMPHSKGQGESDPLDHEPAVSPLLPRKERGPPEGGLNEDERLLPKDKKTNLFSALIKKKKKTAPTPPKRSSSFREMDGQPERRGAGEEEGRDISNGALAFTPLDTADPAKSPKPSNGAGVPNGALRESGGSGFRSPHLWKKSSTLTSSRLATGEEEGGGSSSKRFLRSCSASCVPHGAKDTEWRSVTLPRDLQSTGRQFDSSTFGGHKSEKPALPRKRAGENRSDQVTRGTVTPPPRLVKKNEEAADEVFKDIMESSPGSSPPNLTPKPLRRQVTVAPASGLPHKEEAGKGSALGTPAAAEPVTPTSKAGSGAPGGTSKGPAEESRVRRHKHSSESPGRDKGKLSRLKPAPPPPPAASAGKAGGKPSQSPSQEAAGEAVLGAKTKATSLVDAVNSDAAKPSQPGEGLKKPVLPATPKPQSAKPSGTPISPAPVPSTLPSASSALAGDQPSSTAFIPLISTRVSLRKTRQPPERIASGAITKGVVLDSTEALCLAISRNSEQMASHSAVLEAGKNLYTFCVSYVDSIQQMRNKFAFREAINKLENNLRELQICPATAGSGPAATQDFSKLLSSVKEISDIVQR
T3 sequence (P42684 whole entry): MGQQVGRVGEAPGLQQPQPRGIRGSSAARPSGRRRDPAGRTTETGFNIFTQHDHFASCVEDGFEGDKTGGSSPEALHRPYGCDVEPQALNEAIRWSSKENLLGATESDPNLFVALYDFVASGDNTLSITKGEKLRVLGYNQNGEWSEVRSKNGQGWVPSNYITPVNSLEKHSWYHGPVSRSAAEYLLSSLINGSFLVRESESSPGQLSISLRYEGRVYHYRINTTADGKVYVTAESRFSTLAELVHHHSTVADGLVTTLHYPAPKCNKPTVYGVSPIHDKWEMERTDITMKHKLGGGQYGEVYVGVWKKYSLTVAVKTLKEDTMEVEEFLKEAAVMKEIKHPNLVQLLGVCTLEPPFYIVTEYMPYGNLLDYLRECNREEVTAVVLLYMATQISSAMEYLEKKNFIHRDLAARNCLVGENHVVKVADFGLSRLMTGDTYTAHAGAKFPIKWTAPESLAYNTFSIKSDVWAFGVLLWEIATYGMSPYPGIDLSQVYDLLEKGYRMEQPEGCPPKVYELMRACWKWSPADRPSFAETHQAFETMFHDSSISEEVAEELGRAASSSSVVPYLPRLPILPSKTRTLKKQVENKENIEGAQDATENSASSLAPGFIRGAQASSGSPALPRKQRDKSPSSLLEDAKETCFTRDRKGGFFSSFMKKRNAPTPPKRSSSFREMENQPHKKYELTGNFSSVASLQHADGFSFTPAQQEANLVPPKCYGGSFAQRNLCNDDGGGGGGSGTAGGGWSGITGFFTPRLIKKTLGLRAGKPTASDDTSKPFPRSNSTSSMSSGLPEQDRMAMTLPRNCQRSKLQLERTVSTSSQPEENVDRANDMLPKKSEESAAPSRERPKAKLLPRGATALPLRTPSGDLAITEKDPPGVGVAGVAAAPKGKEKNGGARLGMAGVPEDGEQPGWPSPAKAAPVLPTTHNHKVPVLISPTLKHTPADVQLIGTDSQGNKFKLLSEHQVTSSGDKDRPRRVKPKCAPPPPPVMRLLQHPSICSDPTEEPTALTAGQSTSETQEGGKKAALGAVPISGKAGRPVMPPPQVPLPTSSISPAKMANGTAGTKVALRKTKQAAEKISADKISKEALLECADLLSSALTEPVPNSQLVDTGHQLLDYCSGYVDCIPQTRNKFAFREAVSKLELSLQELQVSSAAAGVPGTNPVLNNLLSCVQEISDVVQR
T2 sequence (Q2M2I8 whole entry): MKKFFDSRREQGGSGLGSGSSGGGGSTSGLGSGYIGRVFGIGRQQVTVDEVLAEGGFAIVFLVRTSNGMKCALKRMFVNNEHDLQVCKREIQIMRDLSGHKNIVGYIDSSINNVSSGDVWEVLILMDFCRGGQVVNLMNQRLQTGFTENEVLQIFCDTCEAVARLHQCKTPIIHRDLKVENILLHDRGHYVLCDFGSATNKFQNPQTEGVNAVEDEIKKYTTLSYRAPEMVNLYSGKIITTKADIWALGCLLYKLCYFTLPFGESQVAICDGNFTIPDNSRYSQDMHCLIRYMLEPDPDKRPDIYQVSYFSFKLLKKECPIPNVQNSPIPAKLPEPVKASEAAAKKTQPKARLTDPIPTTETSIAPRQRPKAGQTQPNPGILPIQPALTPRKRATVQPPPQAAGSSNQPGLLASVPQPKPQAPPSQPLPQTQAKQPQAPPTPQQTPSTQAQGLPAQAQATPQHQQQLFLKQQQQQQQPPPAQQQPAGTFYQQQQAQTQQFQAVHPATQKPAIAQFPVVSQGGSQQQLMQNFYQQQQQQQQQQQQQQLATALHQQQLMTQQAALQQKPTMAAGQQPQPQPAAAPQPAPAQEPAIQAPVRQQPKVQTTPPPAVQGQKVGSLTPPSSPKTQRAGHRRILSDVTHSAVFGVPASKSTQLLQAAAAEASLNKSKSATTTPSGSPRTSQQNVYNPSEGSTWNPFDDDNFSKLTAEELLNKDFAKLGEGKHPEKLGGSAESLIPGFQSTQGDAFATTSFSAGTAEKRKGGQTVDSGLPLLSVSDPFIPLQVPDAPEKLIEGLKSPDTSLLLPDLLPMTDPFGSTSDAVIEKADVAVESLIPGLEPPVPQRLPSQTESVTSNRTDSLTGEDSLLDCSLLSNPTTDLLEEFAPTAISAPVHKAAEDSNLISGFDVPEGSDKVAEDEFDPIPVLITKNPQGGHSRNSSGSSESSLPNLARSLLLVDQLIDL

Turning to `Cc1cccc(Nc2nc(NCCN)ncc2C(N)=O)c1` [GSK1292139B], the CATDS on ACAD11 came to 0; on AAK1, 0.21; at ABL1, 0; at ABL2 it was 0; at ACOX1 it was 0. For the same compound, the potency estimated from few doses on AAK1 was 164 nM.
Turning to `Nc1ncc(-c2ccc3nccc(-c4ccncc4)c3c2)cc1S(=O)(=O)N1CCCCC1` [GSK1693850A], the CATDS at ACAD11, at AAK1, on ABL1, on ABL2 and on ACOX1 was 0 throughout.
Consider `COc1cc2ncn(-c3cc(OCC4CCCO4)c(C(N)=O)s3)c2cc1OC` (centres unmarked) [GSK204607A], for which the CATDS on ACAD11, on AAK1, on ABL1, on ABL2 and at ACOX1 was 0 in each case.
`Nc1ncc(-c2ccc3nccc(-c4ccncc4)c3c2)cc1S(=O)(=O)N1CCOCC1` [GSK1627798A]: the CATDS on ACAD11, at AAK1, on ABL1, on ABL2 and at ACOX1 was 0 throughout.
As for `Cc1ccc(NC(=O)c2cccc(N3CCCCC3)c2)cc1-c1ccc(C(=O)NCC2CC2)cc1` [GSK1917008A], the CATDS on ACAD11, on AAK1, at ABL1, at ABL2 and on ACOX1 was 0 each time.
For `NC[C@H](Cc1ccc(C(F)(F)F)cc1)NC(=O)c1cc(Br)c(-c2ccnc3[nH]ccc23)s1` [GSK1487252A], the CATDS at ACAD11, at AAK1, on ABL1, on ABL2 and on ACOX1 was 0 throughout.
Take `CSc1nn2c(=O)cc(N3CCOCC3)nc2n1Cc1cccc(Cl)c1Cl` [GSK2347225A]: the CATDS at ACAD11, at AAK1, at ABL1, on ABL2 and on ACOX1 was 0 each time.
For the compound `O=S(=O)(c1cccc2cnccc12)N1CCCNCC1` [Fasudil, reference compound], the CATDS at ACAD11, on AAK1, at ABL1, on ABL2 and at ACOX1 was 0 throughout.
As to `c1ccc(-c2cc3ccncc3cc2OC2CCNCC2)cc1` [GSK1122999D], the CATDS on ACAD11, at AAK1, on ABL1, on ABL2 and on ACOX1 was 0 each time.
Consider `O=c1[nH]c2cc(Nc3ccc(F)cc3F)ccc2n1CC1CCCCC1` [BI00601000], for which the CATDS on ACAD11, on AAK1, at ABL1, on ABL2 and on ACOX1 was 0 in each case.
Consider `O=c1cc(N2CCOCC2)nc2n(Cc3cccc(Cl)c3)ccn12` [GSK2296823A], for which the CATDS at ACAD11, at AAK1, at ABL1, at ABL2 and on ACOX1 was 0 throughout.
Consider `NCC1CNC(=O)c2cc3ccc(C(=O)Nc4cccnc4)cc3n2C1` (centres unmarked) [BI00614644], for which the CATDS at ACAD11, at AAK1, on ABL1, at ABL2 and on ACOX1 was 0 each time.
Consider `COc1cc(N2CCN(C(C)C)CC2)ccc1Nc1nc(Nc2cccc(F)c2C(=O)O)c2cc[nH]c2n1` [GSK1819799A], for which the CATDS on ACAD11, at AAK1, on ABL1, at ABL2 and at ACOX1 was 0 in each case.
`CCCNC(=O)c1ccc(Nc2ncc(C(F)(F)F)c(Nc3ccccc3C(C)=O)n2)c(Br)c1` [BI00801818]: the CATDS on ACAD11, on AAK1, on ABL1, at ABL2 and at ACOX1 was 0 throughout.
As to `COc1ccc(Nc2nccc(N3CCC(NC(=O)c4cccc(C#N)c4)C3)n2)cc1` (centres unmarked) [GSK1379730A], the CATDS on ACAD11, on AAK1, at ABL1, on ABL2 and on ACOX1 was 0 in each case.
Consider `O=C(c1ccc(F)c(F)c1Nc1ccc(I)cc1F)N1CC(O)([C@@H]2CCCCN2)C1` [Cobimetinib, reference compound], for which the CATDS at ACAD11, at AAK1, at ABL1, on ABL2 and on ACOX1 was 0 in each case.
Turning to `CC(=O)c1cccc(NC(=O)NC2CCN(c3ccnc(Nc4ccc(F)cc4)n3)C2)c1` (centres unmarked) [GSK1379710A], the CATDS at ACAD11, at AAK1, on ABL1, on ABL2 and at ACOX1 was 0 in each case.
As for `Cc1cc(N2CCC(NS(=O)(=O)c3ccc(F)cc3)CC2)nc(Nc2cccc(C#N)c2)n1` [GSK1653537A], the CATDS on ACAD11, at AAK1, on ABL1, on ABL2 and at ACOX1 was 0 throughout.
For `Cc1c(Cn2c(C)nn3c(=O)cc(N4CCOC(C)C4)nc23)cccc1C(F)(F)F` (centres unmarked) [GSK2344444A], the CATDS on ACAD11, on AAK1, on ABL1, at ABL2 and on ACOX1 was 0 in each case.
For the compound `COc1cc(N2CCN(C(C)C)CC2)ccc1Nc1nc(Nc2ccc(F)cc2C(=O)NC[C@@H](O)CO)c2cc[nH]c2n1` [GSK1392956A], the CATDS on ACAD11, on AAK1, on ABL1, on ABL2 and on ACOX1 was 0 each time.
Regarding `NC[C@H](CC1CCCCC1)NC(=O)c1cc(Br)c(-c2ccnc3[nH]ccc23)s1` [GSK1581427A], the CATDS on ACAD11, on AAK1, on ABL1, at ABL2 and on ACOX1 was 0 in each case.
On to `COc1cc(Nc2ccnc3ccc(Br)cc23)cc(OC)c1OC` [CA93.0], for which the CATDS at ACAD11, at AAK1, on ABL1, at ABL2 and at ACOX1 was 0 in each case.
On to `Cc1occc1-c1nc(N)c(OC[C@@H](N)Cc2c[nH]c3ccccc23)cc1-c1cc2c(C)n[nH]c2cn1` [GSK1660450B], for which the CATDS on ACAD11, on AAK1, at ABL1, at ABL2 and on ACOX1 was 0 each time. Besides, the potency estimated from few doses on AAK1 was above 1000 nM.
On to `NC(=O)c1sc(-n2cnc3ccccc32)cc1OCc1ccccc1Br` [GSK1023156A], for which the CATDS at ACAD11, at AAK1, on ABL1, on ABL2 and on ACOX1 was 0 in each case.

These data come from publication PMC11062922 (Nature Chemical Biology, 2023).
